Experimental data: publication PMC9661477, “New Dual P-Glycoprotein (P-gp) and Human Carbonic Anhydrase XII (hCA XII) Inhibitors as Multidrug Resistance (MDR) Reversers in Cancer Cells” (Journal of Medicinal Chemistry, 2022)
Like-named read-outs stand apart in the source and are kept apart here.

What was measured:
hCA IX = hCA IX (Homo sapiens, UniProt Q16790); assay: stopped-flow CO2 hydrase assay, hCA IX
Text: (§1) An SX.18MV-R Applied Photophysics (Oxford, U.K.) stopped-flow instrument has been used to assay the catalytic/inhibition of various CA isozymes.[38] […] The inhibition constants were obtained by nonlinear least-squares methods using the Cheng–Prusoff equation, as reported earlier,[32] and represent the mean from at least three different determinations.

hCA II = hCA II (Homo sapiens, UniProt P00918); assay: stopped-flow CO2 hydrase assay, hCA II; details: read-out: Ki hCA II; stopped-flow technique, mean from three different assays
Text: as §1

hCA I = hCA I (Homo sapiens, UniProt P00915); assay: stopped-flow CO2 hydrase assay, hCA I; details: read-out: Ki hCA I; stopped-flow technique, mean from three different assays
Text: as §1

[1] = read-out: Ki hCA IX, stopped-flow technique, mean from three different assays

Chain of hCA I (P00915 whole entry): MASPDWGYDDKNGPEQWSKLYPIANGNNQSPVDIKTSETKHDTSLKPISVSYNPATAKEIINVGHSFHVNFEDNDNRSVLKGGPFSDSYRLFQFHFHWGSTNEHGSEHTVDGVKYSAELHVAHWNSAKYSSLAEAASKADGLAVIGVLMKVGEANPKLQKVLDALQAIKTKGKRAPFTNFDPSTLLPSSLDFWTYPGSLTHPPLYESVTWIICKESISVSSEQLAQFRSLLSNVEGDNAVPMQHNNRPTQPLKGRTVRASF

| Ki (hCA IX; [1]) [nM] | Ki (hCA II) [nM] | Ki (hCA I) [nM] | Ki (hCA IX) [nM] | Structure (SMILES) |
| --- | --- | --- | --- | --- |
| 27.8 | > 10000 | > 10000 | – | COc1cc(/C=C/C(=O)OCCCCCCCN(CCCOC(=O)/C=C/c2cc(OC)c(OC)c(OC)c2)CCCOc2ccc3ccc(=O)oc3c2)cc(OC)c1OC [Compound 19, (E)-7-((3-((2-Oxo-2H-chromen-7-yl)oxy)propyl)(3-(((E)-3-(3,4,5-trimethoxyphenyl)acryloyl)oxy)propyl)amino)heptyl 3-(3,4,5-Trimethoxyphenyl)acrylate] |
| 71.1 | > 10000 | > 10000 | – | COc1cc(/C=C/C(=O)OCCCN(CCCCCCCOC(=O)c2c3ccccc3cc3ccccc23)CCCOc2ccc3ccc(=O)oc3c2)cc(OC)c1OC [Compound 25, (E)-7-((3-((2-Oxo-2H-chromen-7-yl)oxy)propyl)(3-((3-(3,4,5-trimethoxyphenyl)acryloyl)oxy)propyl)amino)heptyl Anthracene-9-carboxylate] |
| 24.2 | > 10000 | > 10000 | – | COc1cc(/C=C/C(=O)OCCCCCN(CCCOC(=O)c2cc(OC)c(OC)c(OC)c2)CCCOc2ccc3ccc(=O)oc3c2)cc(OC)c1OC [Compound 2, (E)-3-((3-((2-Oxo-2H-chromen-7-yl)oxy)propyl)(5-((3-(3,4,5-trimethoxyphenyl)acryloyl)oxy)pentyl)amino)propyl 3,4,5-Trimethoxybenzoate] |
| 7.9 | > 10000 | > 10000 | < 10 | COc1cc(/C=C/C(=O)OCCCCCN(CCCOC(=O)c2c3ccccc3cc3ccccc23)CCCOc2ccc3ccc(=O)oc3c2)cc(OC)c1OC [Compound 3, (E)-3-((3-((2-Oxo-2H-chromen-7-yl)oxy)propyl)(5-((3-(3,4,5-trimethoxyphenyl)acryloyl)oxy)pentyl)amino)propyl Anthracene-9-carboxylate] |
| 36.2 | > 10000 | > 10000 | – | COc1cc(C(=O)OCCCCCN(CCCOC(=O)c2c3ccccc3cc3ccccc23)CCCOc2ccc3ccc(=O)oc3c2)cc(OC)c1OC [Compound 6, 3-((3-((2-Oxo-2H-chromen-7-yl)oxy)propyl)(5-((3,4,5-trimethoxybenzoyl)oxy)pentyl)amino)propyl Anthracene-9-carboxylate] |
| 71.7 | > 10000 | > 10000 | – | COc1cc(/C=C/C(=O)OCCCN(CCCCCCOC(=O)c2cc(OC)c(OC)c(OC)c2)CCCOc2ccc3ccc(=O)oc3c2)cc(OC)c1OC [Compound 13, (E)-6-((3-((2-Oxo-2H-chromen-7-yl)oxy)propyl)(3-((3-(3,4,5-trimethoxyphenyl)acryloyl)oxy)propyl)amino)hexyl 3,4,5-Trimethoxybenzoate] |
| 5.2 | > 10000 | > 10000 | < 10 | COc1cc(/C=C/C(=O)OCCCCCCCN(CCCOC(=O)c2cc(OC)c(OC)c(OC)c2)CCCOc2ccc3ccc(=O)oc3c2)cc(OC)c1OC [Compound 20, (E)-3-((3-((2-Oxo-2H-chromen-7-yl)oxy)propyl)(7-((3-(3,4,5-trimethoxyphenyl)acryloyl)oxy)heptyl)amino)propyl 3,4,5-Trimethoxybenzoate] |
| 104 | > 10000 | > 10000 | – | COc1cc(/C=C/C(=O)OCCCN(CCCCCOC(=O)c2c3ccccc3cc3ccccc23)CCCOc2ccc3ccc(=O)oc3c2)cc(OC)c1OC [Compound 7, (E)-5-((3-((2-Oxo-2H-chromen-7-yl)oxy)propyl)(3-((3-(3,4,5-trimethoxyphenyl)acryloyl)oxy)propyl)amino)pentyl Anthracene-9-carboxylate] |
| 50.2 | > 10000 | > 10000 | – | COc1cc(/C=C/C(=O)OCCCCCCN(CCCOC(=O)c2cc(OC)c(OC)c(OC)c2)CCCOc2ccc3ccc(=O)oc3c2)cc(OC)c1OC [Compound 11, (E)-3-((3-((2-Oxo-2H-chromen-7-yl)oxy)propyl)(6-((3-(3,4,5-trimethoxyphenyl)acryloyl)oxy)hexyl)amino)propyl 3,4,5-Trimethoxybenzoate] |
| 123 | > 10000 | > 10000 | – | COc1cc(C(=O)OCCCN(CCCCCCOC(=O)c2c3ccccc3cc3ccccc23)CCCOc2ccc3ccc(=O)oc3c2)cc(OC)c1OC [Compound 17, 6-((3-((2-Oxo-2H-chromen-7-yl)oxy)propyl)(3-((3,4,5-trimethoxybenzoyl)oxy)propyl)amino)hexyl Anthracene-9-carboxylate] |
| 148 | > 10000 | > 10000 | – | COc1cc(/C=C/C(=O)OCCCN(CCCCCCOC(=O)c2c3ccccc3cc3ccccc23)CCCOc2ccc3ccc(=O)oc3c2)cc(OC)c1OC [Compound 16, (E)-6-((3-((2-Oxo-2H-chromen-7-yl)oxy)propyl)(3-((3-(3,4,5-trimethoxyphenyl)acryloyl)oxy)propyl)amino)hexyl Anthracene-9-carboxylate] |
| 166 | > 10000 | > 10000 | – | O=C(OCCCCCCN(CCCOC(=O)c1c2ccccc2cc2ccccc12)CCCOc1ccc2ccc(=O)oc2c1)c1c2ccccc2cc2ccccc12 [Compound 18, 3-((6-((Anthracene-9-carbonyl)oxy)hexyl)(3-((2-oxo-2H-chromen-7-yl)oxy)propyl)amino)propyl Anthracene-9-carboxylate] |
| 41.3 | > 10000 | > 10000 | – | COc1cc(C(=O)OCCCN(CCCCCCCOC(=O)c2c3ccccc3cc3ccccc23)CCCOc2ccc3ccc(=O)oc3c2)cc(OC)c1OC [Compound 26, 7-((3-((2-Oxo-2H-chromen-7-yl)oxy)propyl)(3-((3,4,5-trimethoxybenzoyl)oxy)propyl)amino)heptyl Anthracene-9-carboxylate] |
| 14.2 | > 10000 | > 10000 | – | COc1cc(/C=C/C(=O)OCCCCCCCN(CCCOC(=O)c2c3ccccc3cc3ccccc23)CCCOc2ccc3ccc(=O)oc3c2)cc(OC)c1OC [Compound 21, (E)-3-((3-((2-Oxo-2H-chromen-7-yl)oxy)propyl)(7-((3-(3,4,5-trimethoxyphenyl)acryloyl)oxy)heptyl)amino)propyl Anthracene-9-carboxylate] |
| 102 | > 10000 | > 10000 | – | O=C(OCCCCCCCN(CCCOC(=O)c1c2ccccc2cc2ccccc12)CCCOc1ccc2ccc(=O)oc2c1)c1c2ccccc2cc2ccccc12 [Compound 27, 3-((7-((Anthracene-9-carbonyl)oxy)heptyl)(3-((2-oxo-2H-chromen-7-yl)oxy)propyl)amino)propyl Anthracene-9-carboxylate] |
| 137 | > 10000 | > 10000 | – | O=C(OCCCCCN(CCCOC(=O)c1c2ccccc2cc2ccccc12)CCCOc1ccc2ccc(=O)oc2c1)c1c2ccccc2cc2ccccc12 [Compound 9, 3-((5-((Anthracene-9-carbonyl)oxy)pentyl)(3-((2-oxo-2H-chromen-7-yl)oxy)propyl)amino)propyl Anthracene-9-carboxylate] |
| 93.7 | > 10000 | > 10000 | – | COc1cc(C(=O)OCCCN(CCCCCOC(=O)c2c3ccccc3cc3ccccc23)CCCOc2ccc3ccc(=O)oc3c2)cc(OC)c1OC [Compound 8, 5-((3-((2-Oxo-2H-chromen-7-yl)oxy)propyl)(3-((3,4,5-trimethoxybenzoyl)oxy)propyl)amino)pentyl Anthracene-9-carboxylate] |
| 18.3 | > 10000 | > 10000 | – | COc1cc(C(=O)OCCCCCCCN(CCCOC(=O)c2cc(OC)c(OC)c(OC)c2)CCCOc2ccc3ccc(=O)oc3c2)cc(OC)c1OC [Compound 23, 7-((3-((2-Oxo-2H-chromen-7-yl)oxy)propyl)(3-((3,4,5-trimethoxybenzoyl)oxy)propyl)amino)heptyl 3,4,5-Trimethoxybenzoate] |
| 26.8 | > 10000 | > 10000 | – | COc1cc(/C=C/C(=O)OCCCCCCN(CCCOC(=O)c2c3ccccc3cc3ccccc23)CCCOc2ccc3ccc(=O)oc3c2)cc(OC)c1OC [Compound 12, (E)-3-((3-((2-Oxo-2H-chromen-7-yl)oxy)propyl)(6-((3-(3,4,5-trimethoxyphenyl)acryloyl)oxy)hexyl)amino)propyl Anthracene-9-carboxylate] |
| 54.1 | > 10000 | > 10000 | – | COc1cc(C(=O)OCCCCCCN(CCCOC(=O)c2c3ccccc3cc3ccccc23)CCCOc2ccc3ccc(=O)oc3c2)cc(OC)c1OC [Compound 15, 3-((3-((2-Oxo-2H-chromen-7-yl)oxy)propyl)(6-((3,4,5-trimethoxybenzoyl)oxy)hexyl)amino)propyl Anthracene-9-carboxylate] |
| 39.5 | > 10000 | > 10000 | – | COc1cc(/C=C/C(=O)OCCCCCN(CCCOC(=O)/C=C/c2cc(OC)c(OC)c(OC)c2)CCCOc2ccc3ccc(=O)oc3c2)cc(OC)c1OC [Compound 1, (E)-5-((3-((2-Oxo-2H-chromen-7-yl)oxy)propyl)(3-(((E)-3-(3,4,5-trimethoxyphenyl)acryloyl)oxy)propyl)amino)pentyl 3-(3,4,5-Trimethoxyphenyl)acrylate] |
| 38.5 | > 10000 | > 10000 | – | COc1cc(C(=O)OCCCCCCCN(CCCOC(=O)c2c3ccccc3cc3ccccc23)CCCOc2ccc3ccc(=O)oc3c2)cc(OC)c1OC [Compound 24, 3-((3-((2-Oxo-2H-chromen-7-yl)oxy)propyl)(7-((3,4,5-trimethoxybenzoyl)oxy)heptyl)amino)propyl Anthracene-9-carboxylate] |
| 8.1 | > 10000 | > 10000 | < 10 | COc1cc(/C=C/C(=O)OCCCCCCN(CCCOC(=O)/C=C/c2cc(OC)c(OC)c(OC)c2)CCCOc2ccc3ccc(=O)oc3c2)cc(OC)c1OC [Compound 10, (E)-6-((3-((2-Oxo-2H-chromen-7-yl)oxy)propyl)(3-(((E)-3-(3,4,5-trimethoxyphenyl)acryloyl)oxy)propyl)amino)hexyl 3-(3,4,5-Trimethoxyphenyl)acrylate] |
